Laboratory results published in patent US9518038B2, “Condensation product of theanine derivative and carboxylic acid coumarin derivative, its intermediate, preparation method and use thereof” (SHANDONG YINGDONG YINGHAO BIOTECHNOLOGY, INC., priority 2012, dated 2016).
pIC50: −log10 of the molar value.

Experiments:
[1] = tested on: human cervical cancer Hela cell lines; test: MTT growth inhibition, Hela cells; assay type: cell-based; settings: Homo sapiens, 72 h after treatment, read-out: Drug concentration (IC50) at which 50% cancer cells survived
[2] = tested on: highly metastatic Lewis lung cancer cell lines; test: MTT growth inhibition, LLC cells; assay type: cell-based, mouse; settings: Mus musculus, Lewis lung carcinoma, 72 h after treatment, read-out: Drug concentration (IC50) at which 50% cancer cells survived
[3] = tested on: human brain tumor cells Daoy; test: MTT growth inhibition, Daoy cells; assay type: cell-based; settings: Homo sapiens, 72 h after treatment, read-out: Drug concentration (IC50) at which 50% cancer cells survived
[4] = Fluorescent imaging in vivo and in vitro; assay type: physicochemical; settings: 60 mg/kg body weight/0.2 ml
Experimental: Fluorescent images and wavelength ranges of the compounds as obtained in embodiments 1-7 were determined according to the literature method (Chen Y, et al., 2-(3-{1-Carboxy-5-[(6-[18F]fluoro-pyridine-3-carbonyl)-amino]-pentyl}-ureido)-pentanedioic acid, [18F]DCFPyL, a PSMA-based PET imaging agent for prostate cancer. Clin Cancer Res, 2011, 17(24):7645-53), and the results were shown in Table 3 and FIG. 1.
2. Experimental procedure: For in-vitro fluorescent imaging and detection: the compounds Ia-Ih as obtained in embodiments 1-7 were prepared in 1.5 ml plastic centrifugal tubes into a solution with the concentration of 60 mg/0.2 ml, fluorescent signals and images were respectively detected and recorded with a multifunctional microplate reader and an animal in-vivo imaging instrument under the following excitation and emission wavelength conditions, and the obtained results were shown in Table 3 and FIG. 1 (small test tube photos); and for the detection of fluorescent images in-vivo: after 16 h of fasting treatment of the experimental animals (while drinking water was normally supplied), solutions of the compounds Ia-Ih as obtained in embodiments 1-7 were prepared according to a concentration of 60 mg/kg body weight/0.2 ml, and intraperitoneally administered to the animal, the fluorescent images were detected and recorded with the animal in-vivo imaging instrument under the following excitation and emission wavelength conditions, the obtained results were shown in FIG. 1 (animal in-vivo imaged photos); wherein, the experimental excitation wavelength range was 360 nm-590 nm; and the detection wavelength range was 410 nm-700 nm.

Akt = test: Western Blotting, Akt level; assay type: cell-based; settings: human liver cancer cells, Lewis lung cancer cells and other cancer cell lines and tumor tissues, read-out: Effective concentration (IC50) for inhibition of Akt
Text: (§1) Antibodies: primary antibodies of VEGFR, EGFR, c-Met, K-Ras, H-Ras, Akt, NF-κB, Cyclin D1, ER-alpha, Dvl-1, Dvl-2, Dvl-3, MMP-9, MMP2, β-catenin, Bcl-2, Bax, p53, p21, E-cadherin and Caspase3 protein, purchased from American Cell Signaling Technology Company and Santa Cruz Technology Company; and H3 acetylation, H4 acetylation and HDAC (HDAC3, HDAC4 and the like) Antibody Sample Kits, purchased from Cell Signaling Technology Company of the U.S.
(§2) (3) polyacrylamide gel electrophoresis (SDS-PAGE): an equal amount of protein lysate sample was used to separate protein, film transfer, and blocking, treated with appropriate primary antibodies and secondary antibodies in sequence, and the film was washed, then the color was developed with ECL kit, and a blot protein band was detected by exposure of an X-ray film; and a Gel-Pro Analyzer was used for quantitative analysis of gray degree, optical density value of the control group and the drug treatment group in various concentration were respectively compared with that of internal reference, the obtained ratios were respectively compared with the control group, and the protein expression level was semi-quantified.

NF-κB = test: Western Blotting, NF-κB level; assay type: cell-based; settings: human liver cancer cells, Lewis lung cancer cells and other cancer cell lines and tumor tissues, read-out: Effective concentration (IC50) for inhibition of NF-κB
Text: as §1, §2

EGFR = test: Western Blotting, EGFR level; assay type: cell-based; settings: human liver cancer cells, Lewis lung cancer cells and other cancer cell lines and tumor tissues, read-out: Effective concentration (IC50) for inhibition of EGFR
Text: as §1, §2

c-Met = test: Western Blotting, c-Met level; assay type: cell-based; settings: human liver cancer cells, Lewis lung cancer cells and other cancer cell lines and tumor tissues, read-out: Effective concentration (IC50) for inhibition of c-Met
Text: as §1, §2

HDAC4 = HDAC4 enzyme activity in nuclear extracts of human tumor xenografts of treated mice; settings: second value of the pair HDAC3 and HDAC4, SAHA 25 mg/kg
Experimental: For the detection of the effect of the drugs on enzyme activity of EZH2 and HDAC of in-vivo tumors, the tumors were separately excised after 6 h of medication, total proteins and nucleoproteins were extracted separately to detect and analyze the activity of the enzyme.
(2) 50 μl of diluted sample solution was added into each reaction well, the plate was sealed with a plate-sealing film and reacted at room temperature for 30 min;
(3) the plate-sealing film was carefully peeled off, the liquid was removed, dried, 150 μl of washing liquid was added into each well, stood for 30 s, then the liquid was removed, repeated twice, and dried;
(4) 2 μl of HDAC enzyme or tumor tissue nuclear extracts was respectively uniformly mixed with 28 μl of diluted sample solution, added into the wells, the plate was sealed with the plate-sealing film and reacted at 37° C. for 60 min;
(5) the plate was washed for three times, wherein the operation was the same as that in (3); and a diluted antibody capture working solution was added into each reaction well according to 50 μl/well and reacted on a shaking bed at room temperature for 60 min;
(6) the plate was washed for four times, wherein the operation was the same as that in (3);
(7) a diluted antibody detection working solution was added into each reaction well according to 50 μl/well and reacted at room temperature for 30 min;
(8) the plate was washed for five times, wherein the operation was the same as that in (3);
a color developing agent was added according to 100 μl/well, and performed dark development for 2-10 min;
(9) 50 μl of stop solution was added into each well for stopping the reaction when the color in the well with a standard product turned blue with medium intensity, the color immediately turned yellow from blue after the addition;
(10) the light absorbance (OD value) of each well was measured in sequence at the wavelength of 450 nm; wherein the measurement should be performed within 15 min after addition of the stop solution; and

Question: With `CCNC(=O)CC[C@@H](NC(=O)c1cc2cc(Br)cc(Br)c2oc1=O)C(=O)OCC` [Compound Ih, (R)-2-(6,8-dibromo-2-oxo-2H-benzopyran-3-carboxamido)-5-ethylamino-5-oxo-pentanoic ethyl ester] as the compound, how does the pIC50 [1] read?
Answer: 4.24

Question: What about the pIC50 [2] of the same compound?
Answer: 4.28

Question: And the pIC50 [3]?
Answer: 3.92

Question: And the “Emission (fluorescent wavelength range detectable in vivo and in vitro)” value [4]?
Answer: 430-690 nm

Question: What about the “Excitation (fluorescent wavelength range detectable in vivo and in vitro)” value [4] of the same compound?
Answer: 360-610 nm

Question: And the pIC50 (Akt)?
Answer: > 4.15

Question: And the pIC50 (NF-κB)?
Answer: > 4.00

Question: What about the pIC50 (EGFR) of the same compound?
Answer: > 4.00

Question: What about the pIC50 (c-Met) of the same compound?
Answer: > 3.30

Question: What about the “decrease of HDAC4 enzyme activity/inhibition rate” value (HDAC4; A549 tumor grown in vivo) of the same compound?
Answer: 59%*(A549)-

Question: And the “decrease of HDAC4 enzyme activity/inhibition rate” value (HDAC4; MCF7 tumor grown in vivo)?
Answer: 66%*(MCF7)

Question: What about the “decrease of HDAC4 enzyme activity/inhibition rate” value (HDAC4; MDA-MB231 tumor grown in vivo) of the same compound?
Answer: 64%*(MDA-MB231)

Question: And the “decrease of HDAC4 enzyme activity/inhibition rate” value (HDAC4; SMMC7721 tumor grown in vivo)?
Answer: 62%*(SMMC7721);
